Data taken from ChEMBL document CHEMBL4507316 (2021).

Columns and labels:
[1] = molecular target: Mitogen-activated protein kinase 10 (Homo sapiens) (UniProt P53779); assay: JNK3 ProQinase selectivity panel; settings: Compound concentration 1.0 uM
[2] = molecular target: Serine/threonine-protein kinase PAK 4 (Homo sapiens) (UniProt O96013); assay: PAK4 ProQinase selectivity panel; settings: Compound concentration 1.0 uM
[3] = molecular target: Serine/threonine-protein kinase DCLK2 (Homo sapiens) (UniProt Q8N568); assay: DCAMKL2 ProQinase selectivity panel; settings: Compound concentration 1.0 uM
[4] = molecular target: Ephrin type-B receptor 2 (Homo sapiens) (UniProt P29323); assay: EPHB2 ProQinase selectivity panel; settings: Compound concentration 1.0 uM
[5] = molecular target: Serine/threonine-protein kinase TAO2 (Homo sapiens) (UniProt Q9UL54); assay: TAOK2 ProQinase selectivity panel; settings: Compound concentration 1.0 uM
[6] = molecular target: D(2) dopamine receptor (Homo sapiens) (UniProt P14416); settings: Compound concentration 10.0 uM
[7] = molecular target: Calcium/calmodulin-dependent protein kinase type 1D (Homo sapiens) (UniProt Q8IU85); assay: CAMK1D ProQinase selectivity panel; settings: Compound concentration 1.0 uM
[8] = molecular target: Histamine H1 receptor (Homo sapiens) (UniProt P35367); settings: Compound concentration 10.0 uM
[9] = molecular target: MAP/microtubule affinity-regulating kinase 4 (Homo sapiens) (UniProt Q96L34); assay: MARK4 ProQinase selectivity panel; settings: Compound concentration 1.0 uM
[10] = molecular target: MAP kinase-interacting serine/threonine-protein kinase 1 (Homo sapiens) (UniProt Q9BUB5); assay: MKNK1 ProQinase selectivity panel; settings: Compound concentration 1.0 uM
[11] = tested on: Tyrosine-protein kinase ABL1 (Homo sapiens), P00519 [T315I]; assay: ABL1 T315I ProQinase selectivity panel; settings: Compound concentration 1.0 uM
[12] = molecular target: Sodium-dependent noradrenaline transporter (Homo sapiens) (UniProt P23975); settings: Compound concentration 10.0 uM
[13] = molecular target: Phosphorylase b kinase gamma catalytic chain, skeletal muscle/heart isoform (Homo sapiens) (UniProt Q16816); assay: PHKG1 ProQinase selectivity panel; settings: Compound concentration 1.0 uM
[14] = molecular target: 5-hydroxytryptamine receptor 2C (Homo sapiens) (UniProt P28335); settings: Compound concentration 10.0 uM
[15] = molecular target: Tyrosine-protein kinase Yes (Homo sapiens) (UniProt P07947); assay: YES ProQinase selectivity panel; settings: Compound concentration 1.0 uM
[16] = tested on: Receptor-type tyrosine-protein kinase FLT3 (Homo sapiens), P36888 [D835Y]; assay: FLT3 D835Y ProQinase selectivity panel; settings: Compound concentration 1.0 uM
[17] = molecular target: Serine/threonine-protein kinase B-raf (Homo sapiens) (UniProt P15056); assay: B-RAF wt ProQinase selectivity panel; settings: Compound concentration 1.0 uM
[18] = molecular target: Ephrin type-A receptor 1 (Homo sapiens) (UniProt P21709); assay: EPHA1 ProQinase selectivity panel; settings: Compound concentration 1.0 uM
[19] = tested on: Epidermal growth factor receptor (Homo sapiens), P00533 [L858R]; assay: EGF-R L858R ProQinase selectivity panel; settings: Compound concentration 1.0 uM
[20] = molecular target: Alpha-2C adrenergic receptor (Homo sapiens) (UniProt P18825); settings: Compound concentration 10.0 uM
[21] = molecular target: D(4) dopamine receptor (Homo sapiens) (UniProt P21917); settings: Compound concentration 10.0 uM
[22] = molecular target: SRSF protein kinase 3 (Homo sapiens) (UniProt Q9UPE1); assay: STK23 ProQinase selectivity panel; settings: Compound concentration 1.0 uM
[23] = tested on: Dual specificity mitogen-activated protein kinase kinase 6 (Homo sapiens), P52564 [S207D,T211D]; assay: MKK6 S207D/T211D ProQinase selectivity panel; settings: Compound concentration 1.0 uM
[24] = molecular target: Tyrosine-protein kinase receptor UFO (Homo sapiens) (UniProt P30530); assay: AXL ProQinase selectivity panel; settings: Compound concentration 1.0 uM
[25] = tested on: Tyrosine-protein kinase ABL1 (Homo sapiens), P00519 [E255K]; assay: ABL1 E255K ProQinase selectivity panel; settings: Compound concentration 1.0 uM
[26] = molecular target: Cyclin-dependent kinase 16 (Homo sapiens) (UniProt Q00536); assay: PCTAIRE1 ProQinase selectivity panel; settings: Compound concentration 1.0 uM
[27] = molecular target: Ephrin type-A receptor 8 (Homo sapiens) (UniProt P29322); assay: EPHA8 ProQinase selectivity panel; settings: Compound concentration 1.0 uM
[28] = molecular target: RAC-alpha serine/threonine-protein kinase (Homo sapiens) (UniProt P31749); assay: AKT1 ProQinase selectivity panel; settings: Compound concentration 1.0 uM
[29] = molecular target: Myosin light chain kinase (Homo sapiens) (UniProt Q32MK0); assay: MYLK3 ProQinase selectivity panel; settings: Compound concentration 1.0 uM
[30] = molecular target: cGMP-dependent protein kinase 2 (Homo sapiens) (UniProt Q13237); assay: PRKG2 ProQinase selectivity panel; settings: Compound concentration 1.0 uM
[31] = molecular target: Eukaryotic translation initiation factor 2-alpha kinase 1 (Homo sapiens) (UniProt Q9BQI3); assay: HRI ProQinase selectivity panel; settings: Compound concentration 1.0 uM
[32] = molecular target: Tyrosine-protein kinase BTK (Homo sapiens) (UniProt Q06187); assay: BTK ProQinase selectivity panel; settings: Compound concentration 1.0 uM
[33] = molecular target: Serine/threonine-protein kinase Nek1 (Homo sapiens) (UniProt Q96PY6); assay: NEK1 ProQinase selectivity panel; settings: Compound concentration 1.0 uM
[34] = molecular target: Cyclin-dependent kinase 5/CDK5 activator 1 (Homo sapiens) (UniProt Q00535+Q15078); assay: CDK5/p35NCK ProQinase selectivity panel; assay type: protein-complex assay; settings: Compound concentration 1.0 uM
[35] = molecular target: Tyrosine-protein kinase Fgr (Homo sapiens) (UniProt P09769); assay: FGR ProQinase selectivity panel; settings: Compound concentration 1.0 uM
[36] = molecular target: RAC-beta serine/threonine-protein kinase (Homo sapiens) (UniProt P31751); assay: AKT2 ProQinase selectivity panel; settings: Compound concentration 1.0 uM
[37] = molecular target: cGMP-dependent protein kinase 1 (Homo sapiens) (UniProt Q13976); assay: PRKG1 ProQinase selectivity panel; settings: Compound concentration 1.0 uM
[38] = tested on: Hepatocyte growth factor receptor (Homo sapiens), P08581 [Y1230H]; assay: MET Y1230H ProQinase selectivity panel; settings: Compound concentration 1.0 uM
[39] = molecular target: CDK7/Cyclin H/MNAT1 (Homo sapiens) (UniProt P51946+P50613+P51948); assay: CDK7/CycH/MAT1 ProQinase selectivity panel; assay type: protein-complex assay; settings: Compound concentration 1.0 uM
[40] = molecular target: Receptor tyrosine-protein kinase erbB-2 (Homo sapiens) (UniProt P04626); assay: ERBB2 ProQinase selectivity panel; settings: Compound concentration 1.0 uM
[41] = tested on: Epidermal growth factor receptor (Homo sapiens), P00533 [L861Q]; assay: EGF-R L861Q ProQinase selectivity panel; settings: Compound concentration 1.0 uM
[42] = molecular target: Casein kinase I isoform gamma-1 (Homo sapiens) (UniProt Q9HCP0); assay: CK1-gamma1 ProQinase selectivity panel; settings: Compound concentration 1.0 uM
[43] = molecular target: Serine/threonine-protein kinase 33 (Homo sapiens) (UniProt Q9BYT3); assay: STK33 ProQinase selectivity panel; settings: Compound concentration 1.0 uM
[44] = molecular target: Serine/threonine-protein kinase MRCK beta (Homo sapiens) (UniProt Q9Y5S2); assay: CDC42BPB ProQinase selectivity panel; settings: Compound concentration 1.0 uM
[45] = molecular target: Fibroblast growth factor receptor 2 (Homo sapiens) (UniProt P21802); assay: FGF-R2 ProQinase selectivity panel; settings: Compound concentration 1.0 uM
[46] = molecular target: Mitogen-activated protein kinase 9 (Homo sapiens) (UniProt P45984); assay: JNK2 ProQinase selectivity panel; settings: Compound concentration 1.0 uM
[47] = tested on: Proto-oncogene tyrosine-protein kinase receptor Ret (Homo sapiens), P07949 [V804L]; assay: RET V804L ProQinase selectivity panel; settings: Compound concentration 1.0 uM
[48] = molecular target: Ribosomal protein S6 kinase alpha-3 (Homo sapiens) (UniProt P51812); assay: RPS6KA3 ProQinase selectivity panel; settings: Compound concentration 1.0 uM
Chain of Ribosomal protein S6 kinase alpha-3 (Homo sapiens) (P51812 whole entry): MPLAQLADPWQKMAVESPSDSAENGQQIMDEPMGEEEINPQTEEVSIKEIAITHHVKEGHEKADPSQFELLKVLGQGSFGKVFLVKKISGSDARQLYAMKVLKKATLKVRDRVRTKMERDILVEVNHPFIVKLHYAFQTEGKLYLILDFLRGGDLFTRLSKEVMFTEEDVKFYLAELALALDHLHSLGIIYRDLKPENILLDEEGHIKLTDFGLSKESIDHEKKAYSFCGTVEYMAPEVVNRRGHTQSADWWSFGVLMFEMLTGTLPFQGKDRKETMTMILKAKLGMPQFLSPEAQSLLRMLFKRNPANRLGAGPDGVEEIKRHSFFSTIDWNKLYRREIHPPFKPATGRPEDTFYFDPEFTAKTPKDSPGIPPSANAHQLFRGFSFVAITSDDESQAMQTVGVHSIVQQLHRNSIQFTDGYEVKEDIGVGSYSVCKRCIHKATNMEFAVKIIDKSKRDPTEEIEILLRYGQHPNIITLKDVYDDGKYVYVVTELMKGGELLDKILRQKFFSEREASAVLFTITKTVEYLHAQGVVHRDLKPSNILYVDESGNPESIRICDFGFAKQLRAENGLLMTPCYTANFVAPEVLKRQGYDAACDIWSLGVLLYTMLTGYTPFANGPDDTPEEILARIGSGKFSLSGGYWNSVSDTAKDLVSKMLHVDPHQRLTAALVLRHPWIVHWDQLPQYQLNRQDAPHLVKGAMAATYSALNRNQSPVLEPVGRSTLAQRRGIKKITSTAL

Chain of Receptor tyrosine-protein kinase erbB-2 (Homo sapiens) (P04626 whole entry): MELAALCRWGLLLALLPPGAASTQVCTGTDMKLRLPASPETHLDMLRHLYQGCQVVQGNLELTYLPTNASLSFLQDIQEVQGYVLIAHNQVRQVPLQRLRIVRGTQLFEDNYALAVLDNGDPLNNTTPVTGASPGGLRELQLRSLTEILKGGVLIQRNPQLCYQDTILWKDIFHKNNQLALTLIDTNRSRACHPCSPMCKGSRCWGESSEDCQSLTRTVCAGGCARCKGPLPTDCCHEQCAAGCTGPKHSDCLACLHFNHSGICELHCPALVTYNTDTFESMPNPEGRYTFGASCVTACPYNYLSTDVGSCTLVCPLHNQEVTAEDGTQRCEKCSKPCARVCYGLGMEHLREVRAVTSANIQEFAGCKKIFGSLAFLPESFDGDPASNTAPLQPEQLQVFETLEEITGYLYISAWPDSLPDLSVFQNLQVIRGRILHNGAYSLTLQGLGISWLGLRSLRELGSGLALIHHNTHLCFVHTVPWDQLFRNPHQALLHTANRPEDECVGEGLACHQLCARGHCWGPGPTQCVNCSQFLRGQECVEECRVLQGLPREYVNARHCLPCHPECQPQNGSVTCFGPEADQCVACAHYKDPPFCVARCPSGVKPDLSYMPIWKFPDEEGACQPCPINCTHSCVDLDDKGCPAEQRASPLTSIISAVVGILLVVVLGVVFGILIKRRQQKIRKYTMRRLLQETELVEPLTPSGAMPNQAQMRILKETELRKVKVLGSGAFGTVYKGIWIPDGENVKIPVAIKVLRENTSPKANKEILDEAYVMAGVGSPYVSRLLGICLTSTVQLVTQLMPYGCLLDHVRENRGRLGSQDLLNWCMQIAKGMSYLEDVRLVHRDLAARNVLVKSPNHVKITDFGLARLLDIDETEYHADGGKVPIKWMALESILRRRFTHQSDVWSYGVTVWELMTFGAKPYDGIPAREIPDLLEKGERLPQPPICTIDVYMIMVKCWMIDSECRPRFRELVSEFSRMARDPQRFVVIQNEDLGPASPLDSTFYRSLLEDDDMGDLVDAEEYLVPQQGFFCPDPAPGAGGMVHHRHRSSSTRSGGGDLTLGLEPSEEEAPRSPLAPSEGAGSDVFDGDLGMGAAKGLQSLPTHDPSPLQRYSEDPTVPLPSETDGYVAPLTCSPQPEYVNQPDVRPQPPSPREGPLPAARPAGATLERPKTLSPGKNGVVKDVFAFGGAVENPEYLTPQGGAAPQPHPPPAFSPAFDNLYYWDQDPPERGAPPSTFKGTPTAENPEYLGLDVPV
Chain of RAC-beta serine/threonine-protein kinase (Homo sapiens) (P31751 whole entry): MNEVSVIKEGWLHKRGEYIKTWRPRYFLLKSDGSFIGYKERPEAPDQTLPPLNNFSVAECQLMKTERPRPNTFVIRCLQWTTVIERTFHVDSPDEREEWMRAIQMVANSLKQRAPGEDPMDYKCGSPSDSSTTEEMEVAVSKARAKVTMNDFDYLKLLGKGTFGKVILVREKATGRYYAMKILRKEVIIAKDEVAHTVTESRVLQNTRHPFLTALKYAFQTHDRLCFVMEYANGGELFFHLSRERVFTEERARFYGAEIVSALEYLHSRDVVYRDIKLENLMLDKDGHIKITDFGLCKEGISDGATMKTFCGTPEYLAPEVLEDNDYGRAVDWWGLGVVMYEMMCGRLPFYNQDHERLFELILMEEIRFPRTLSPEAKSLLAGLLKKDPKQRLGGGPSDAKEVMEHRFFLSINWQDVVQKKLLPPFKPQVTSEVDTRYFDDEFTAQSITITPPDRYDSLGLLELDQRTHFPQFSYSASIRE
Chain of Myosin light chain kinase (Homo sapiens) (Q32MK0 whole entry): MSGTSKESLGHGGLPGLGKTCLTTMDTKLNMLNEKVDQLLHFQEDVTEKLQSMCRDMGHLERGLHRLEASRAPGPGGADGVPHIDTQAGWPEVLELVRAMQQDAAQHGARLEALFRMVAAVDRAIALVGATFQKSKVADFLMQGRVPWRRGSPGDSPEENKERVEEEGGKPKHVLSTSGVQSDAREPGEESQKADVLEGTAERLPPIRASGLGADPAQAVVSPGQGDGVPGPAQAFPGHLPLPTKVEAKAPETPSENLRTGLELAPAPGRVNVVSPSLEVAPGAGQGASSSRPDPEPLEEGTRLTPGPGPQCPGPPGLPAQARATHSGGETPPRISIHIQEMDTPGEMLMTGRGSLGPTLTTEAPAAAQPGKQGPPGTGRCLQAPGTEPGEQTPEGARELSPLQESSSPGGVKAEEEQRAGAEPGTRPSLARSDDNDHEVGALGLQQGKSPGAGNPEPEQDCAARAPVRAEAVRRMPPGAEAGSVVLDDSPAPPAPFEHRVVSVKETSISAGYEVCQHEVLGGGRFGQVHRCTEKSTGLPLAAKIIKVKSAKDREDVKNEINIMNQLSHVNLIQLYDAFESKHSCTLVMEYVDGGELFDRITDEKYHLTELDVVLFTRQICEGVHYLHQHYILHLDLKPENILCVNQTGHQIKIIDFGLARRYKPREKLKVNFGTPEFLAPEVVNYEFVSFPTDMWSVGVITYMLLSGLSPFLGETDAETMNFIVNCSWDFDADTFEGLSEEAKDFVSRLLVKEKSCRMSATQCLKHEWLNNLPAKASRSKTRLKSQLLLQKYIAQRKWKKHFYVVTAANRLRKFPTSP
Chain of Calcium/calmodulin-dependent protein kinase type 1D (Homo sapiens) (Q8IU85 whole entry, looked up): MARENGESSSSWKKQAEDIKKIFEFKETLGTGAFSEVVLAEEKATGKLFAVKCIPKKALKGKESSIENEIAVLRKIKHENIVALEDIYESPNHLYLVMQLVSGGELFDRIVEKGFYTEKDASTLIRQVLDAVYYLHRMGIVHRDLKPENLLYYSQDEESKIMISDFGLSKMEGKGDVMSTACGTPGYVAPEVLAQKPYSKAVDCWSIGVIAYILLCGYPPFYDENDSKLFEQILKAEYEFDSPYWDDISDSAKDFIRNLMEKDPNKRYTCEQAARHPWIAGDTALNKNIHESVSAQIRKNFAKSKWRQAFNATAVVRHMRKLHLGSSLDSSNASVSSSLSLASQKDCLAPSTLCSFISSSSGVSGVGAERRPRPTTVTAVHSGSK
Chain of Casein kinase I isoform gamma-1 (Homo sapiens) (Q9HCP0 whole entry, looked up, canonical isoform): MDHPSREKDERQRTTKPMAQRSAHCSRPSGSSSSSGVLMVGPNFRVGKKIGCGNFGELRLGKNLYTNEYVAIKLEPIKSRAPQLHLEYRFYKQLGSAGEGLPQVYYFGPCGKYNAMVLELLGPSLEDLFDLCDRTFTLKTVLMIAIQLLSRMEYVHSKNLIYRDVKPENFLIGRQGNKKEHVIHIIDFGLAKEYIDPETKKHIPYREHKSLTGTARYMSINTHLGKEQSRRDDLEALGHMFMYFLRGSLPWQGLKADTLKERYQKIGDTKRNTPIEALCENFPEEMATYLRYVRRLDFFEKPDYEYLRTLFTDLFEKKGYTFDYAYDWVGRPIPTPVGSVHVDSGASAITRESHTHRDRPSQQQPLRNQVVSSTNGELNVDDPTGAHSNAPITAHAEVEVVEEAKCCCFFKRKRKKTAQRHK
Chain of Fibroblast growth factor receptor 2 (Homo sapiens) (P21802 22-821 limits assumed): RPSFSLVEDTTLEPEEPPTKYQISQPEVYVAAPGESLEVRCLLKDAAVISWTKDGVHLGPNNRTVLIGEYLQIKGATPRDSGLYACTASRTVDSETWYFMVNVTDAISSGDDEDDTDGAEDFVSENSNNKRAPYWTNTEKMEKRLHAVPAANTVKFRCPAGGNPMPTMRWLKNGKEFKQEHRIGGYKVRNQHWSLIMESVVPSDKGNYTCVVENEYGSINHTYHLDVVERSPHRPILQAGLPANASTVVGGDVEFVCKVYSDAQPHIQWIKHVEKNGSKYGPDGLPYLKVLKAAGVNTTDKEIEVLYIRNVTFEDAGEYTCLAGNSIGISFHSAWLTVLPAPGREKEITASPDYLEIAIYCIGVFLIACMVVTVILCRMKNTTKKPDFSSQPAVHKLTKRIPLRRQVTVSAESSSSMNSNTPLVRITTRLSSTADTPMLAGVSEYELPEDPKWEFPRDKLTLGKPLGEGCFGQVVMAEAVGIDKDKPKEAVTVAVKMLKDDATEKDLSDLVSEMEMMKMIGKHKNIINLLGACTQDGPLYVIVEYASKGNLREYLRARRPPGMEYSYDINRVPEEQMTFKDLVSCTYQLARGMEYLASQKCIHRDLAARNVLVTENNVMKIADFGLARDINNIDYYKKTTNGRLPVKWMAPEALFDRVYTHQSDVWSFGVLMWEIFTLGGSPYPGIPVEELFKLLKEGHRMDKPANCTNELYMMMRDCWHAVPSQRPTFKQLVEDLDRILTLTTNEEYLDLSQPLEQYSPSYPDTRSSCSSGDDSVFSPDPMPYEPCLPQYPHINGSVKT

O=C1c2ccc(Nc3ccc(F)cc3F)cc2CCc2ccc(OC[C@H](O)CO)cc21 [Skepinone-L]
inactive: % Residual activity with Skepinone-L [1] 33% | % Residual activity with Skepinone-L [2] 88% | % Residual activity with Skepinone-L [3] 83% | % Residual activity with Skepinone-L [4] 91% | % Residual activity with Skepinone-L [5] 102% | inhibition [6] 7.19% | % Residual activity with Skepinone-L [7] 106% | inhibition [8] 12.7% | % Residual activity with Skepinone-L [9] 96% | % Residual activity with Skepinone-L [10] 69% | % Residual activity with Skepinone-L [11] 93% | inhibition [12] 29.4% | % Residual activity with Skepinone-L [13] 93% | inhibition [14] 24% | % Residual activity with Skepinone-L [15] 119% | % Residual activity with Skepinone-L [16] 101% | % Residual activity with Skepinone-L [17] 112% | % Residual activity with Skepinone-L [18] 115% | % Residual activity with Skepinone-L [19] 89% | inhibition [20] 10.8% | inhibition [21] 9.38% | % Residual activity with Skepinone-L [22] 96% | % Residual activity with Skepinone-L [23] 120% | % Residual activity with Skepinone-L [24] 100% | % Residual activity with Skepinone-L [25] 105% | % Residual activity with Skepinone-L [26] 79% | % Residual activity with Skepinone-L [27] 95% | % Residual activity with Skepinone-L [28] 102% | % Residual activity with Skepinone-L [29] 85% | % Residual activity with Skepinone-L [30] 94% | % Residual activity with Skepinone-L [31] 106% | % Residual activity with Skepinone-L [32] 100% | % Residual activity with Skepinone-L [33] 83% | % Residual activity with Skepinone-L [34] 90% | % Residual activity with Skepinone-L [35] 100% | % Residual activity with Skepinone-L [36] 121% | % Residual activity with Skepinone-L [37] 110% | % Residual activity with Skepinone-L [38] 102% | % Residual activity with Skepinone-L [39] 107% | % Residual activity with Skepinone-L [40] 91% | % Residual activity with Skepinone-L [41] 94% | % Residual activity with Skepinone-L [42] 97% | % Residual activity with Skepinone-L [43] 94% | % Residual activity with Skepinone-L [44] 83% | % Residual activity with Skepinone-L [45] 125% | % Residual activity with Skepinone-L [46] 58% | % Residual activity with Skepinone-L [47] 115% | % Residual activity with Skepinone-L [48] 89%
